The record followed here is US8012963B2, “3,4-dihydro-2H-benzo[1,4]oxazine and thiazine derivatives as CETP inhibitors” (Janssen Pharmaceutica N.V., priority 2006, dated 2011).

Structures are written as SMILES. Values joined by “and” are separate entries in the source; they are usually repeats but may differ in a detail not shown here. Equal entries are not always repeated.

The assay addresses T1, CETP (Homo sapiens, UniProt P11597).
T1 construct: from tissue; host or cells: human plasma from normal volunteers
T1 sequence (P11597 18-493): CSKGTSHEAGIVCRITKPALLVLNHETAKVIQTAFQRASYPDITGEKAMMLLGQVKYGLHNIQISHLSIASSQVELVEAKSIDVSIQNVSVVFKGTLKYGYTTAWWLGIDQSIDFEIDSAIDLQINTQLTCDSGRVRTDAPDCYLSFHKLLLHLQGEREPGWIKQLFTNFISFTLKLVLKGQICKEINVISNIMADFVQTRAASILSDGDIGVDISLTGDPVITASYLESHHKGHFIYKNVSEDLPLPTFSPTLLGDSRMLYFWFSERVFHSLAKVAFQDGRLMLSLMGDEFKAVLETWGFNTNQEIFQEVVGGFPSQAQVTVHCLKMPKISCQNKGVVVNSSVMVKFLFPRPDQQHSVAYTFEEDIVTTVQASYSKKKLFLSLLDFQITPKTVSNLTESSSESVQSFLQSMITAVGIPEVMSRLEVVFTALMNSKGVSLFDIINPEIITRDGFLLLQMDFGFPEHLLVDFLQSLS
In words: CETP in vitro assay ([3H]CE-HDL transfer, Amersham kit TRKQ7005; modified protocol in human plasma). The conditions noted are these: multiple values = multiple measurements; for % Inhibition @ 1 μM / inhibition at 1 µM: 1 μM compound. The assay is classed as biochemical. The gist of the method: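 Normal-volunteer human plasma was incubated ≥4 hr at 37 °C with approx. 25 μg/ml [3H]CE-HDL and compound in DMSO, with a 4 °C blank for non-specific transfer. HDL was separated by Dextralip/MgCl2 precipitation and centrifugation, then supernatant radioactivity counted. IC50 came from % control versus concentration.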

With `OC(CN1c2cccc(-c3cccc(OC(F)(F)F)c3)c2OCC1c1cccc(C(F)(F)F)c1)C(F)(F)F` (centres unmarked) [Compound 70, 1,1,1-Trifluoro-3-[8-(3-trifluoromethoxy-phenyl)-3-(3-trifluoromethyl-phenyl)-2,3-dihydro-benzo[1,4]oxazin-4-yl]propan-2-ol], the “% Inhibition @ 1 μM” value (1 µM) came to 37%.

As for `OC(CN1c2cccc(-c3cccc(OC(F)(F)F)c3)c2OCC1c1cccc(C(F)(F)F)c1)C(F)(F)F` (centres unmarked) [Compound 71, 1,1,1-Trifluoro-3-[8-(3-trifluoromethoxy-phenyl)-3-(3-trifluoromethyl-phenyl)-2,3-dihydro-benzo[1,4]oxazin-4-yl]-propan-2-ol], the “% Inhibition @ 1 μM” value (1 µM) is 2%. In general, inhibition refers to the change of the read-out against control, counted positive when it falls. The IC50 is the point on the concentration scale where inhibition reaches its midpoint. A lower IC50 goes with higher potency. As to `O[C@@H](CN1c2cccc(-c3cc(F)cc(F)c3)c2OC[C@@H]1c1cccc(OC(F)(F)C(F)F)c1)C(F)(F)F` [Compound 72, 4H-1,4-Benzoxazine-4-ethanol, 8-(3,5-difluorophenyl)-2,3-dihydro-3-[3-(1,1,2,2-tetrafluoroethoxy)phenyl]-α-(trifluoromethyl)-, (3S,αS)—], the inhibition at 1 µM worked out at 100% and it took 50 nM to reach half-maximal inhibition (IC50).

In the case of `O[C@H](CN1c2cccc(-c3cc(F)cc(F)c3)c2OC[C@@H]1c1cccc(OC(F)(F)C(F)F)c1)C(F)(F)F` [Compound 73, 4H-1,4-Benzoxazine-4-ethanol, 8-(3,5-difluorophenyl)-2,3-dihydro-3-[3-(1,1,2,2-tetrafluoroethoxy)phenyl]-α-(trifluoromethyl)-, (3S,αR)—], the inhibition at 1 µM is 76% and half-maximal inhibition (IC50) was put at 460 nM. As to `O[C@@H](CN1c2cccc(-c3cc(F)c(F)c(F)c3)c2OC[C@@H]1c1cccc(OC(F)(F)C(F)F)c1)C(F)(F)F` [Compound 76, 4H-1,4-Benzoxazine-4-ethanol, 2,3-dihydro-3-[3-(1,1,2,2-tetrafluoroethoxy)phenyl]-8-[3,4,5-trifluoro-phenyl]-α-(trifluoromethyl)-, (3S,αS)—], the inhibition at 1 µM stood at 106% and the midpoint of inhibition, the IC50, lay at 41 nM. The “% Inhibition @ 1 μM” value (1 µM) amounted to 101%. Taken in the same sequence, the figures for `O[C@H](CN1c2cccc(-c3cc(F)c(F)c(F)c3)c2OC[C@@H]1c1cccc(OC(F)(F)C(F)F)c1)C(F)(F)F` [Compound 77, 4H-1,4-Benzoxazine-4-ethanol, 2,3-dihydro-3-[3-(1,1,2,2-tetrafluoroethoxy)phenyl]-8-[3,4,5-trifluoro-phenyl]-α-(trifluoromethyl)-, (3S,αR)—] were 80%, 220 nM and 82%. Taken in the same sequence, the figures for `O[C@@H](CN1c2cccc(-c3cc(C(F)(F)F)cc(C(F)(F)F)c3)c2OC[C@@H]1c1cccc(OC(F)(F)C(F)F)c1)C(F)(F)F` [Compound 78, 4H-1,4-Benzoxazine-4-ethanol, 2,3-dihydro-3-[3-(1,1,2,2-tetrafluoroethoxy)phenyl]-8-[3,5-bis(trifluoromethyl)phenyl]-α-(trifluoromethyl)-, (3S,αS)—] were 55%, 580 nM and 62%.

With `O[C@H](CN1c2cccc(-c3cc(C(F)(F)F)cc(C(F)(F)F)c3)c2OC[C@@H]1c1cccc(OC(F)(F)C(F)F)c1)C(F)(F)F` [Compound 79, 4H-1,4-Benzoxazine-4-ethanol, 2,3-dihydro-3-[3-(1,1,2,2-tetrafluoroethoxy)phenyl]-8-[3,5-bis(trifluoromethyl)phenyl]-α-(trifluoromethyl)-, (3S,αR)—], the inhibition at 1 µM was determined as 43% and the half-maximal inhibitory concentration (IC50) turned out to be 5000 nM. Besides, under “1 µM”, the “% Inhibition @ 1 μM” value was 40%.

On to `O[C@@H](CN1c2cccc(-c3cc(F)cc(F)c3)c2OC[C@@H]1c1cccc(OC(F)(F)F)c1)C(F)(F)F` [Compound 80, 4H-1,4-Benzoxazine-4-ethanol, 2,3-dihydro-3-[3-(trifluoromethoxy)phenyl]-8-[3,5-(difluoro)phenyl]-α-(trifluoromethyl)-, (3S,αS)—], for which the inhibition at 1 µM is 100% and the IC50 came to 193 nM. As for `O[C@@H](CN1c2cccc(-c3cc(F)c(F)c(F)c3)c2OC[C@@H]1c1cccc(OC(F)(F)F)c1)C(F)(F)F` [Compound 82, 4H-1,4-Benzoxazine-4-ethanol, 2,3-dihydro-3-[3-(trifluoromethoxy)phenyl]-8-[3,4,5-(trifluoro)phenyl]-α-(trifluoromethyl)-, (3S,αS)—], the inhibition at 1 µM turned out to be 91% and the 50% inhibitory concentration (IC50) was 94 nM. Further, the “% Inhibition @ 1 μM” value (1 µM) worked out at 96%.

On to `O[C@H](CN1c2cccc(-c3cc(F)c(F)c(F)c3)c2OC[C@@H]1c1cccc(OC(F)(F)F)c1)C(F)(F)F` [Compound 83, 4H-1,4-Benzoxazine-4-ethanol, 2,3-dihydro-3-[3-(trifluoromethoxy)phenyl]-8-[3,4,5-(trifluoro)phenyl]-α-(trifluoromethyl)-, (3S,αR)—], for which the inhibition at 1 µM was found to be 29%. As for `CC(C)C(O)CN1c2cccc(-c3cccc(OC(F)(F)F)c3)c2OCC1c1cccc(OC(F)(F)C(F)F)c1` (centres unmarked) [Compound 84, 3-Methyl-1-[3-[3-(1,1,2,2-tetrafluoro-ethoxy)-phenyl]-8-(3-trifluoromethoxy-phenyl)-2,3-dihydro-benzo[1,4]oxazin-4-yl]-butan-2-ol], the inhibition at 1 µM turned out to be 84%; the concentration for half-maximal inhibition (IC50) is 100 nM and 158 nM. The “% Inhibition @ 1 μM” value (1 µM) is 87%. As to `Cc1ccsc1C1COc2c(-c3cccc(OC(F)(F)F)c3)cccc2N1CC(O)C(F)(F)F` (centres unmarked) [Compound 85, 1,1,1-Trifluoro-3-[3-(3-methyl-thiophen-2-yl)-8-(3-trifluoromethoxy-phenyl)-2,3-dihydro-benzo[1,4]oxazin-4-yl]-propan-2-ol], for the setting “1 µM”, the “% Inhibition @ 1 μM” value came out at 20%. Still for that read-out and setting: under `Cc1ccsc1C1COc2c(-c3cccc(OC(F)(F)F)c3)cccc2N1CC(O)C(F)(F)F` (centres unmarked) [Compound 86, 1,1,1-Trifluoro-3-[3-(3-methyl-thiophen-2-yl)-8-(3-trifluoromethoxy-phenyl)-2,3-dihydro-benzo[1,4]oxazin-4-yl]-propan-2-ol] stands 2%. Regarding `CCc1ccsc1C1COc2c(-c3cccc(OC(F)(F)F)c3)cccc2N1CC(O)C(F)(F)F` (centres unmarked) [Compound 87, 3-[3-(3-Ethyl-thiophen-2-yl)-8-(3-trifluoromethoxy-phenyl)-2,3-dihydro-benzo[1,4]oxazin-4-yl]-1,1,1-trifluoro-propan-2-ol], the inhibition at 1 µM was 8%. As to `CCc1ccsc1C1COc2c(-c3cccc(OC(F)(F)F)c3)cccc2N1CC(O)C(F)(F)F` (centres unmarked) [Compound 88, 3-[3-(3-Ethyl-thiophen-2-yl)-8-(3-trifluoromethoxy-phenyl)-2,3-dihydro-benzo[1,4]oxazin-4-yl]-1,1,1-trifluoro-propan-2-ol], the “% Inhibition @ 1 μM” value (1 µM) is reported as 12%. For the compound `OC(CN1c2cccc(-c3cccc(OC(F)(F)F)c3)c2OCC1c1ccco1)C(F)(F)F` (centres unmarked) [Compound 89, 1,1,1-Trifluoro-3-[3-furan-2-yl-8-(3-trifluoromethoxy-phenyl)-2,3-dihydro-benzo[1,4]oxazin-4-yl]-propan-2-ol], the inhibition at 1 µM stood at 17%. `OC(CN1c2cccc(-c3cccc(OC(F)(F)F)c3)c2OCC1c1ccco1)C(F)(F)F` (centres unmarked) [Compound 90, 1,1,1-Trifluoro-3-[3-furan-2-yl-8-(3-trifluoromethoxy-phenyl)-2,3-dihydro-benzo[1,4]oxazin-4-yl]-propan-2-ol]: the “% Inhibition @ 1 μM” value was 17%. Take `OC(CN1c2cccc(-c3cccc(OC(F)(F)F)c3)c2OCC1c1ccccc1OC(F)(F)C(F)F)C(F)(F)F` (centres unmarked) [Compound 91, 1,1,1-Trifluoro-3-[3-[2-(1,1,2,2-tetrafluoro-ethoxy)-phenyl]-8-(3-trifluoromethoxy-phenyl)-2,3-dihydro-benzo[1,4]oxazin-4-yl]-propan-2-ol]: the “% Inhibition @ 1 μM” value (1 µM) is 6%. For the compound `OC(CN1c2cccc(-c3cccc(OC(F)(F)F)c3)c2OCC1c1ccccc1OC(F)(F)C(F)F)C(F)(F)F` (centres unmarked) [Compound 92, 1,1,1-Trifluoro-3-[3-[2-(1,1,2,2-tetrafluoro-ethoxy)-phenyl]-8-(3-trifluoromethoxy-phenyl)-2,3-dihydro-benzo[1,4]oxazin-4-yl]-propan-2-ol], the “% Inhibition @ 1 μM” value (1 µM) is reported as 1%. On to `OC(CN1c2cccc(-c3cccc(OC(F)(F)F)c3)c2OCC1c1ccc(OC(F)(F)C(F)F)cc1)C(F)(F)F` (centres unmarked) [Compound 93, 1,1,1-Trifluoro-3-[3-[4-(1,1,2,2-tetrafluoro-ethoxy)-phenyl]-8-(3-trifluoromethoxy-phenyl)-2,3-dihydro-benzo[1,4]oxazin-4-yl]propan-2-ol], for which, for the setting “1 µM”, the “% Inhibition @ 1 μM” value is on record as 33%. The same measure, in the same setting: under `OC(CN1c2cccc(-c3cccc(OC(F)(F)F)c3)c2OCC1c1ccc(OC(F)(F)C(F)F)cc1)C(F)(F)F` (centres unmarked) [Compound 94, 1,1,1-Trifluoro-3-[3-[4-(1,1,2,2-tetrafluoro-ethoxy)-phenyl]-8-(3-trifluoromethoxy-phenyl)-2,3-dihydro-benzo[1,4]oxazin-4-yl]propan-2-ol] stands 11%; under `OC(CN1c2cccc(-c3cccc(OC(F)(F)F)c3)c2OCC1c1ccccc1)C(F)(F)F` (centres unmarked) [Compound 95, 1,1,1-Trifluoro-3-[3-phenyl-8-(3-trifluoromethoxy-phenyl)-2,3-dihydro-benzo[1,4]oxazin-4-yl]-propan-2-ol], 43%.
